Counter-ions that a name gives are not always drawn.
Experiments:
PARP-3 FL = molecular target: T1, PARP-3 FL (Homo sapiens, UniProt Q9Y6F1); test: Fluorescence polarization probe displacement assay; format: binding; conditions: compound P1 as the probe
T1 sequence (Q9Y6F1 1-533): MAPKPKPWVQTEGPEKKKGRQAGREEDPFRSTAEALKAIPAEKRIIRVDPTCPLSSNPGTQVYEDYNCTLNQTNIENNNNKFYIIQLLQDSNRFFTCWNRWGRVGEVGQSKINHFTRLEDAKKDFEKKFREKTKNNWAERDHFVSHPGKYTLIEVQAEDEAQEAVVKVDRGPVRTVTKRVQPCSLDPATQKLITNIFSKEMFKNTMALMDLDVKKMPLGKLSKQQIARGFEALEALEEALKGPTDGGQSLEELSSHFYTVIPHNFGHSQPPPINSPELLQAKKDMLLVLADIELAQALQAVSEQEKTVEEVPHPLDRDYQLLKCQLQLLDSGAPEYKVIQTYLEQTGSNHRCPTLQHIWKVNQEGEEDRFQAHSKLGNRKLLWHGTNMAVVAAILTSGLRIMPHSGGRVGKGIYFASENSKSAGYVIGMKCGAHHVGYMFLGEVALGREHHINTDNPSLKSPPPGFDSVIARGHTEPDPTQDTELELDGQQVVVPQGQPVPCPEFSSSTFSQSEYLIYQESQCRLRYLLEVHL
Experimental: (§1) Affinity of the tested compounds and their selectivity with respect to the different PARP isoforms of interest was quantified in a displacement assay.
(§2) In all of the experiments, the polarization signal was measured using a Saphire2 plate reader (Tecan). Data analysis was performed using Dynafit software. In particular, titration data were fitted to the following equilibria: Enzyme+probe <==> Complex Enzyme-probe, while displacement data were fitted to the following equilibria: Enzyme+probe <==> Complex Enzyme-probe, Enzyme+Compound <==> Complex Enzyme-Compound, whereby binding of probe and compound on the enzyme are mutually exclusive (pure competitive mechanism). Displacement data were also fitted using Excel spreadsheet (Microsoft Inc. Seattle, USA) to a four parameter logistic model (4PL), or Hill-Slope model to calculate DC50s where the DC50 value represents the compound concentration at which the polarization signal is diminished by 50% compared to untreated controls.
(§3) In agreement, affinity binding constants (KD) were determined by fitting with a pure competitive mechanism. KD values are the average of three independent experiments.

[1] = system: hydrogen peroxide induced PAR formation in HeLa cells; test: Cellular PAR assay (inhibition of hydrogen peroxide induced PAR formation); format: cell-based; conditions: Homo sapiens, 0.1 mM hydrogen peroxide 15 min
Experimental: Compounds potencies were evaluated by measuring the inhibition of poly (ADP-ribose) (PAR) chains formation as a marker for PARP-1 inhibition.
Cellular activity of PARP-1 inhibitors was assessed by measuring the inhibition of the hydrogen peroxide induced PAR formation in HeLa cells (ECACC). Cellular PAR levels were measured by immunocytochemistry and quantified using an ArrayScan vTi instrument (Cellomics Thermo Scientific).
Studies were performed as follows: 6000 cells/well were seeded in 96 well plates (Perkin Elmer) in MEM/10% FCS and incubated for 24 hours at 37° C., 5% carbon dioxide. Test compounds were then added at the required concentration for 30′. […] Concentration curves were prepared in MEM/10% FCS from compound stocks in DMSO and final DMSO concentration was 0.002% (v/v). Duplicate wells for each concentration point were prepared with a typical highest compound concentration of 20 μM and serial dilution 1:3. […] Non-specific binding sites were blocked by incubating wells for 30 min in PBS containing 5% (w/v) FBS 0.05% tween20. […] After washing further 3 times in PBS, cellular PAR immunoreactivity was assessed using the ArrayScan vTi instrument, with a Zeiss 10×0.5 N.A. objective, and applying the Cytotoxicity.V3 algorithm (Cellomics/Thermo Fisher) with a XF100 filter. At least 10 fields, corresponding to at least 900 cells, were read for each well.
The following formula is used: IC50=Bottom+(Top−Bottom)/(1+10^((Log EC50−X))); X is the logarithm of concentration. IC50 is the response; IC50 starts at Bottom and goes to Top with a sigmoid shape.

PARP-1 FL = PARP-1 FL (Homo sapiens, UniProt P09874); test: Fluorescence polarization probe displacement assay; format: binding; conditions: for DC50: half maximal displacement concentration
Experimental: as §1, §2, §3

PARP-2 FL = PARP-2 FL (Homo sapiens, UniProt Q9UGN5); test: Fluorescence polarization probe displacement assay; format: binding; conditions: for DC50: compound P1 as the probe
Chain of PARP-2 FL (Q9UGN5 whole entry): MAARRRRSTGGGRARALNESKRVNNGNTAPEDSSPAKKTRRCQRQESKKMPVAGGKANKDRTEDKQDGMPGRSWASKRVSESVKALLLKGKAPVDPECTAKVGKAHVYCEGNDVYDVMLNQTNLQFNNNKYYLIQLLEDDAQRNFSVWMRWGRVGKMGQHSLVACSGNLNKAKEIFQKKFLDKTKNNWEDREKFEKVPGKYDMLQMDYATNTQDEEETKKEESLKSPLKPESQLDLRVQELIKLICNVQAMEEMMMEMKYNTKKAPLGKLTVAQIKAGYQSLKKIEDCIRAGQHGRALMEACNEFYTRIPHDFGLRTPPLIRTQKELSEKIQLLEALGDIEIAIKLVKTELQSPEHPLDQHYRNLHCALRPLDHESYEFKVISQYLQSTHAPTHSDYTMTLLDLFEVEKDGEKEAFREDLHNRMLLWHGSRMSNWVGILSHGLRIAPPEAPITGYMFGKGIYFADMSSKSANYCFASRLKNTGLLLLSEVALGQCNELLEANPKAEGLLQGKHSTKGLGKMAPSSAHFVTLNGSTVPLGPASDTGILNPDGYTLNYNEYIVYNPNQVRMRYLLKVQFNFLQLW
Experimental: as §1, §2, §3

Chain of PARP-1 FL (P09874 whole entry): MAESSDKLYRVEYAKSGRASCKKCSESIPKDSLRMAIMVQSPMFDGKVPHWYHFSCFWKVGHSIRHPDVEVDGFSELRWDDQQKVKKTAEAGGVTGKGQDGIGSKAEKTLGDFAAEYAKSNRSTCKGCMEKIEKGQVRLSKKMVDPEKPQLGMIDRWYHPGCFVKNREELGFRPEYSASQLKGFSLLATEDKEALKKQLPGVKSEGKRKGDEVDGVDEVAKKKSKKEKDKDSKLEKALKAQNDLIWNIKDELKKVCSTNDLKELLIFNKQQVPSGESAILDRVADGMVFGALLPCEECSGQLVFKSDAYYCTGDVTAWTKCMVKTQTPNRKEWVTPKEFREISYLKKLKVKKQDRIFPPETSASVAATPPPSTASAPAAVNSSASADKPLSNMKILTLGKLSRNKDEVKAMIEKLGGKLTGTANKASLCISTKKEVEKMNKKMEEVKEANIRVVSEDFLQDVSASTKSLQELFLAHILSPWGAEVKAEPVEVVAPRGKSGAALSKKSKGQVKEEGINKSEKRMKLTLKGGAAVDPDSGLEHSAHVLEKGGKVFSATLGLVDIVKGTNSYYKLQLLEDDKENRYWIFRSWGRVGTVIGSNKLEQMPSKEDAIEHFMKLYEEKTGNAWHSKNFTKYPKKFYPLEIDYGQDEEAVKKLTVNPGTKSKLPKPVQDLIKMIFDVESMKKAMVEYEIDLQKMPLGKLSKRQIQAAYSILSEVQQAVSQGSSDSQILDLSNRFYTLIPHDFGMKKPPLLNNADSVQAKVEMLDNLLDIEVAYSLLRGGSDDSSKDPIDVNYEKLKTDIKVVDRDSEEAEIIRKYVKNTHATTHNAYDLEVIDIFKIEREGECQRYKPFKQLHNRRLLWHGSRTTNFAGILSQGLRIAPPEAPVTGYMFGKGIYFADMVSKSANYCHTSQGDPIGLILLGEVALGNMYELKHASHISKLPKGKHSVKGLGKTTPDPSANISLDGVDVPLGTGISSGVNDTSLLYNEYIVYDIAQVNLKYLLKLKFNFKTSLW

| SMILES | DC50 (PARP-3 FL) | IC50 [1] | Kd (PARP-1 FL) | DC50 (PARP-1 FL) | Kd (PARP-2 FL) | DC50 (PARP-2 FL) |
| --- | --- | --- | --- | --- | --- | --- |
| COc1ccc(-c2[nH]c(=O)c3ccccc3c2OCCCN2CCCCC2)cc1 [Compound 23, 3-(4-Methoxy-phenyl)-4-(3-piperidin-1-yl-propoxy)-2H-isoquinolin-1-one] | 0.48 µM | 0.17 µM | < 0.03 µM | < 0.25 µM | – | – |
| NCCOc1c(-c2ccc(O)cc2)[nH]c(=O)c2ccccc12 [Compound 26, 4-(2-Amino-ethoxy)-3-(4-hydroxy-phenyl)-2H-isoquinolin-1-one] | 0.35 µM | 0.23 µM | < 0.01 µM | < 0.25 µM | 0.33 µM | 0.68 µM |
| O=c1[nH]c(-c2ccc(O)cc2)c(OCCCN2CCCCC2)c2ccccc12 [Compound 27, 3-(4-Hydroxy-phenyl)-4-(3-piperidin-1-yl-propoxy)-2H-isoquinolin-1-one] | 0.55 µM | 0.25 µM | < 0.03 µM | < 0.25 µM | 0.33 µM | 0.77 µM |
| NCCOc1c(-c2ccc(O)cc2)[nH]c(=O)c2cc(F)ccc12 [Compound 28, 4-(2-Amino-ethoxy)-7-fluoro-3-(4-hydroxy-phenyl)-2H-isoquinolin-1-one hydrobromide] | 0.47 µM | 0.4 µM | < 0.03 µM | < 0.25 µM | – | 1.1 µM |
| NCCOc1c(-c2ccsc2)[nH]c(=O)c2ccccc12 [Compound 29, 4-(2-Amino-ethoxy)-3-thiophen-3-yl-2H-isoquinolin-1-one hydrochloride] | 0.2 µM | – | < 0.03 µM | < 0.25 µM | – | 0.54 µM |
| NCCOc1c(-c2cccc(O)c2)[nH]c(=O)c2ccccc12 [Compound 32, 4-(2-Amino-ethoxy)-3-(3-hydroxy-phenyl)-2H-isoquinolin-1-one hydrochloride] | 0.28 µM | 0.2 µM | < 0.03 µM | < 0.25 µM | 0.45 µM | 0.79 µM |
| COc1cccc(-c2[nH]c(=O)c3cc(F)ccc3c2OCCCN2CCCCC2)c1 [Compound 43, 7-Fluoro-3-(3-methoxy-phenyl)-4-(3-piperidin-1-yl-propoxy)-2H-isoquinolin-1-one hydrochloride] | 2.52 µM | 0.09 µM | 0.04 µM | < 0.25 µM | 2.02 µM | 4.21 µM |
| O=c1[nH]c(-c2cccc(Cl)c2)c(OCCCN2CCCCC2)c2ccccc12 [Compound 44, 3-(3-Chloro-phenyl)-4-(3-piperidin-1-yl-propoxy)-2H-isoquinolin-1-one] | 1.23 µM | 0.13 µM | < 0.03 µM | < 0.25 µM | 0.4 µM | 0.7 µM |
| O=c1[nH]c(-c2cccc(O)c2)c(OCCCN2CCCCC2)c2ccc(F)cc12 [Compound 45, 7-Fluoro-3-(3-hydroxy-phenyl)-4-(3-piperidin-1-yl-propoxy)-2H-isoquinolin-1-one hydrochloride] | 0.25 µM | 0.28 µM | < 0.03 µM | < 0.25 µM | 0.12 µM | 0.42 µM |
| COc1cccc(-c2[nH]c(=O)c3cc(F)ccc3c2OCCN)c1 [Compound 46, 4-(2-Amino-ethoxy)-7-fluoro-3-(3-methoxy-phenyl)-2H-isoquinolin-1-one hydrochloride] | 0.37 µM | 0.06 µM | < 0.01 µM | < 0.25 µM | 3.61 µM | 5.99 µM |
| NCCOc1c(-c2cccc(O)c2)[nH]c(=O)c2cc(F)ccc12 [Compound 47, 4-(2-Amino-ethoxy)-7-fluoro-3-(3-hydroxy-phenyl)-2H-isoquinolin-1-one] | 0.22 µM | 0.1 µM | < 0.03 µM | < 0.25 µM | – | 0.51 µM |
| O=c1[nH]c(-c2ccccc2)c(OC2CCNCC2)c2ccc(F)cc12 [Compound 85, 7-fluoro-3-phenyl-4-(piperidin-4-yloxy)isoquinolin-1(2H)-one hydrochloride] | 0.54 µM | – | – | 0.38 µM | – | 4.35 µM |
